Measurements as given in patent publication US6506417B1, “Composition and process for reducing bacterial citrus canker organisms” (FMC Technologies, Inc., priority 2001, dated 2003).

Assays:
[1] = system: Xanthomonas campestris pv. vesicatoria; settings: 200 μg/ml; cited from earlier work
[2] = system: X. axonopodis pv. citrumelo; assay: Dose-response study, 1 minute exposure to peracetic acid dilutions; format: cell-based
Description: Four strains of X. axonopodis pv. citrumelo were obtained from the Florida Department of Citrus and propagated in Nutrient Broth (Difco) at 22° C. with agitation for 48 to 72 hours. Cells were pelleted at 5,000 rpm/16 minutes, washed with Butterfield's Phosphate (pH 7.2) and resuspended in approximately 10% of the initial culture volume with Butterfield's Phosphate in order to concentrate the cells 10×. This final concentrate was used as the inoculum for the dose-response study. FMC VigorOx Liquid Sanitizer and Disinfectant (5% peracetic acid) and VigorOx SP-15 Antimicrobial Agent (15% peracetic acid) were diluted to final peracetic acid concentrations of 0 ppm (control), 5 ppm, 10 ppm, 20 ppm, 30 ppm, 40 ppm, 50 ppm, 60 ppm, 70 ppm, and 80 ppm with distilled water. Each variable was dispensed in 9.9 ml aliquots in sterile test tubes.
A 0.1 ml aliquot of the inoculum was added to each peracetic acid variable, shaken, and allowed to remain exposed to the solution for 1 minute. […]
Data summaries of trials performed on each product are expressed in the following tables. […] The initial inoculum was determined to contain 2.9×10^11 cfu/ml X. axonopodis, and the initial level of X. axonopodis exposed to each concentration of peracetic acid was determined to be 2.9×10^9 cfu/ml.

## CC(=O)OO [peroxyacetic acid]
[1]
  level of eradication: acceptable level of eradication comparable to approved chlorine treatments
[2]; 30 parts per million peroxyacetic acid, and above
  reduction of X. axonopodis: > 99.9%
[2]; greater than 10 but less than 20 parts per million peroxyacetic acid
  significant reduction of X. axonopodis: > 1 log10 cfu/ml
